Laboratory results taken from patent publication US20130096185A1, “INACTIVATION OF miR-34a BY ABERRANT CpG METHYLATION IN CANCER” (priority 2008, published 2013).

System: miR-34a promoter
Assay: Bisulfite sequencing of miR-34a promoter CpG methylation after 5Aza-2′dC treatment
Format: cell-based, human
Conditions: LAPC-4 cells
Description: (a) Pattern of CpG methylation in the miR-34a promoter region in prostate epithelial cells and derived cancer cell lines. The depicted region corresponds to 2.5 kbp upstream of the transcriptional start site (TSS, position indicated by arrow). Vertical bars represent CpG-dinucleotides. The position of the p53 binding site is indicated. The horizontal bars indicate amplified PCR products which were sub-cloned and analyzed by sequencing (gray: distal fragment, black: proximal fragment). The combined results obtained by sequencing of 8 independent subclones are shown for each cell line. Black areas represent the degree of cytosine methylation at the respective CpG position. The white shaded areas indicate methylation after treatment of LAPC-4 cells with 5Aza-2′dC. The open rectangles correspond to the regions covered by the MSP primers. IVM DNA was used as positive control for amplification of the M product. BPH1: benign prostate hyperplasia cells immortalized with SV40 large T antigen. IVM: in vitro methylated DNA.
Reversion of genomic methylation. Cells were grown in the presence of 1 μM 5-aza-2′deoxycytidine (5Aza-2′dC, Sigma) for 72 hours and 300 nM trichostatin A (TSA, Sigma) for the last 24 hours. […]
Bisulfite sequencing. […] For each cell line at least 8 individual clones were sequenced on both strands using M13 primers and BigDye terminator, and analyzed on a 3700 capillary sequencer (Applera).

## Nc1ncn([C@H]2C[C@H](O)[C@@H](CO)O2)c(=O)n1 [5Aza-2′dC, 5-aza-2′deoxycytidine]
  level of CpG methylation of miR-34a: reduction in the level of CpG methylation
